Residues, ends and D or L forms follow the SMILES beside them.
Assays:
Type in all cases: cell-based
[1] = system: P. aeruginosa strain ATCC 27853; experiment: Minimal Inhibitory Concentration, microtiter broth dilution antibacterial assay; conditions: P. aeruginosa ATCC 27853; Mueller Hinton broth; 16-20 hours at 37° C.; lowest concentration giving a clear well
Excerpt: (§1) Table I, which follows, indicates the Minimal Inhibitory Concentration (MIC) in μg/ml of Peptides (SEQ ID NO:1) through (SEQ ID NO:4), (SEQ ID NO:6) through (SEQ ID NO:13), (SEQ ID NO:16), (SEQ ID NO:20), (SEQ ID NO:21) and (SEQ ID NO:23) against S. aureus strain ATCC 25923, P. aeruginosa strain ATCC 27853, E. coli strain 25922, and Candida albicans. The procedure for the antibacterial assay is based upon the guidelines of the National Committee for Clinical Laboratory Standards, Document M7-T2, Volume 8, No. 8, 1988. Stock solutions of the peptides hereinabove mentioned are prepared at a concentration of 512 μg/ml in sterile deionized distilled water and stored at […]. Each peptide is a C-terminal amide and may or may not be acetylated at the N-terminus. An acetyl group at the N-terminus is indicated by an X. The stock peptide solution is diluted in serial dilutions (1:2) down the wells of a microtiter plate so that the final concentrations of peptides in the wells are 0.25, 0.50, 1, 2, 4, 8, 16, 32, 64, 128, and 256 μg/ml. 1-5×10^5 CFUs/ml of either S. aureus ATCC 25923, E. coli ATCC 25922, P. aeruginosa ATCC 27853, or Candida albicans were added to the wells in full strength Mueller Hinton broth (BBL 11443) from a mid-log culture. The inoculum is standardized spectrophotometrically at 600 nm and is verified by colony counts. The plates are incubated for 16-20 hours at 37° C., and the minimal inhibitory concentration (MIC) for each peptide is determined. Minimal inhibitory concentration is defined as the lowest concentration of peptide which produces a clear well in the microtiter plate.

[2] = system: S. aureus strain ATCC 25923; experiment: as above; conditions: S. aureus ATCC 25923; Mueller Hinton broth; 16-20 hours at 37° C.; lowest concentration giving a clear well
Excerpt: as §1

[3] = system: Candida albicans; experiment: Minimal Inhibitory Concentration, microtiter broth dilution assay; conditions: Mueller Hinton broth, 16-20 hours at 37° C., lowest concentration giving a clear well
Excerpt: as §1

[4] = system: E. coli ATCC 25922; experiment: Minimal Inhibitory Concentration, microtiter broth dilution antibacterial assay; conditions: Mueller Hinton broth, 16-20 hours at 37° C., lowest concentration giving a clear well
Excerpt: as §1

Structure (SMILES)	Minimal Inhibitory Concentration P. aeruginosa [1]	Minimal Inhibitory Concentration S. aureus [2]	Minimal Inhibitory Concentration C. albicans [3]	Minimal Inhibitory Concentration E. coli [4]
CC[C@H](C)[C@H](NC(=O)CN)C(=O)NCC(=O)N[C@@H](CCCCN)C(=O)N[C@@H](Cc1ccccc1)C(=O)N[C@@H](CC(C)C)C(=O)N[C@@H](CCCCN)C(=O)N[C@@H](CCCCN)C(=O)N[C@@H](C)C(=O)N[C@@H](CCCCN)C(=O)N[C@@H](CCCCN)C(=O)N[C@@H](Cc1ccccc1)C(=O)NCC(=O)N[C@@H](CCCCN)C(=O)N[C@@H](C)C(=O)N[C@@H](Cc1ccccc1)C(=O)N[C@H](C(=O)N[C@@H](CCCCN)C(=O)N[C@H](C(=O)N[C@@H](CC(C)C)C(=O)N[C@@H](CCCCN)C(=O)N[C@@H](CCCCN)C(=O)N[C@@H](CCCNC(=N)N)C(N)=O)[C@@H](C)CC)C(C)C [(SEQ ID NO: 8)-NH2] (H-GIGKFLKKAKKFGKAFVKILKKR-NH2)	4 µg/mL	16 µg/mL	64 µg/mL	
CC[C@H](C)[C@H](N)C(=O)N[C@@H](CCCCN)C(=O)N[C@@H](CCCCN)C(=O)N[C@@H](Cc1ccccc1)C(=O)N[C@@H](CC(C)C)C(=O)N[C@@H](CCCCN)C(=O)N[C@@H](CCCCN)C(=O)N[C@@H](C)C(=O)N[C@@H](CCCCN)C(=O)N[C@@H](CCCCN)C(=O)N[C@@H](Cc1ccccc1)C(=O)NCC(=O)N[C@@H](CCCCN)C(=O)N[C@@H](CCCCN)C(=O)N[C@@H](Cc1ccccc1)C(=O)N[C@@H](CCCCN)C(=O)N[C@@H](CCCCN)C(=O)N[C@H](C(=O)N[C@@H](CC(C)C)C(=O)N[C@@H](CCCCN)C(=O)N[C@@H](CCCCN)C(N)=O)[C@@H](C)CC [(SEQ ID NO: 2)-NH2] (H-IKKFLKKAKKFGKKFKKILKK-NH2)	8 µg/mL			16 µg/mL
CC[C@H](C)[C@H](NC(=O)CNC(=O)[C@H](CCCNC(=N)N)NC(=O)[C@@H](N)CCCNC(=N)N)C(=O)NCC(=O)N[C@@H](CCCCN)C(=O)N[C@@H](Cc1ccccc1)C(=O)N[C@@H](CC(C)C)C(=O)N[C@@H](CCCCN)C(=O)N[C@@H](CCCCN)C(=O)N[C@@H](C)C(=O)N[C@@H](CCCCN)C(=O)N[C@@H](CCCCN)C(=O)N[C@@H](Cc1ccccc1)C(=O)NCC(=O)N[C@@H](CCCCN)C(=O)N[C@@H](C)C(=O)N[C@@H](Cc1ccccc1)C(=O)N[C@H](C(=O)N[C@@H](CCCCN)C(=O)N[C@H](C(=O)N[C@@H](CC(C)C)C(=O)N[C@@H](CCCCN)C(=O)N[C@@H](CCCCN)C(=O)NCC(N)=O)[C@@H](C)CC)C(C)C [(SEQ ID NO: 13)-NH2] (H-RRGIGKFLKKAKKFGKAFVKILKKG-NH2)	4 µg/mL		64 µg/mL	
CC[C@H](C)[C@H](NC(=O)CNC(=O)[C@@H](N)CCSC)C(=O)NCC(=O)N[C@@H](CCCCN)C(=O)N[C@@H](Cc1ccccc1)C(=O)N[C@@H](CC(C)C)C(=O)N[C@@H](CCCCN)C(=O)N[C@@H](CCCCN)C(=O)N[C@@H](C)C(=O)N[C@@H](CCCCN)C(=O)N[C@@H](CCCCN)C(=O)N[C@@H](Cc1ccccc1)C(=O)NCC(=O)N[C@@H](CCCCN)C(=O)N[C@@H](C)C(=O)N[C@@H](Cc1ccccc1)C(=O)N[C@H](C(=O)N[C@@H](CCCCN)C(=O)N[C@H](C(=O)N[C@@H](CC(C)C)C(=O)N[C@@H](CCCCN)C(=O)N[C@@H](CCCCN)C(N)=O)[C@@H](C)CC)C(C)C [(SEQ ID NO: 11)-NH2] (H-MGIGKFLKKAKKFGKAFVKILKK-NH2)		64 µg/mL	64 µg/mL	
CC[C@H](C)[C@H](NC(=O)CN)C(=O)NCC(=O)N[C@@H](CCCCN)C(=O)N[C@@H](Cc1ccccc1)C(=O)N[C@@H](CC(C)C)C(=O)N[C@@H](CCCCN)C(=O)N[C@@H](CCCCN)C(=O)N[C@@H](C)C(=O)N[C@@H](CCCCN)C(=O)N[C@@H](CCCCN)C(=O)N[C@@H](Cc1ccccc1)C(=O)NCC(=O)N[C@@H](CCCCN)C(=O)N[C@@H](C)C(=O)N[C@@H](Cc1ccccc1)C(=O)N[C@H](C(=O)N[C@@H](CCCCN)C(=O)N[C@H](C(=O)N[C@@H](CC(C)C)C(=O)N[C@@H](CCCCN)C(=O)N[C@@H](CCCCN)C(N)=O)[C@@H](C)CC)[C@@H](C)CC [(SEQ ID NO: 19)-NH2] (H-GIGKFLKKAKKFGKAFIKILKK-NH2)	8 µg/mL	8 µg/mL		
CC[C@H](C)[C@H](NC(=O)CN)C(=O)NCC(=O)N[C@@H](CCCCN)C(=O)N[C@@H](Cc1ccccc1)C(=O)N[C@@H](CC(C)C)C(=O)N[C@@H](CCCCN)C(=O)N[C@@H](CCCCN)C(=O)N[C@@H](C)C(=O)N[C@@H](CCCCN)C(=O)N[C@@H](CCCCN)C(=O)N[C@@H](Cc1ccccc1)C(=O)NCC(=O)N[C@@H](CCCCN)C(=O)N[C@@H](C)C(=O)N[C@@H](Cc1ccccc1)C(=O)N[C@H](C(=O)N[C@@H](CCCCN)C(=O)N[C@H](C(=O)N[C@H](C(=O)N[C@@H](CCCCN)C(=O)N[C@@H](CCCCN)C(N)=O)C(C)C)[C@@H](C)CC)C(C)C [(SEQ ID NO: 6)-NH2] (H-GIGKFLKKAKKFGKAFVKIVKK-NH2)	16 µg/mL	32 µg/mL		16 µg/mL
CC[C@H](C)[C@H](NC(=O)CN)C(=O)NCC(=O)N[C@@H](CCCCN)C(=O)N[C@H](C(=O)N[C@@H](CC(C)C)C(=O)N[C@@H](CCCCN)C(=O)N[C@@H](CCCCN)C(=O)N[C@@H](C)C(=O)N[C@@H](CCCCN)C(=O)N[C@@H](CCCCN)C(=O)N[C@H](C(=O)NCC(=O)N[C@@H](CCCCN)C(=O)N[C@@H](C)C(=O)N[C@H](C(=O)N[C@H](C(=O)N[C@@H](CCCCN)C(=O)N[C@H](C(=O)N[C@@H](CC(C)C)C(=O)N[C@@H](CCCCN)C(=O)N[C@@H](CCCCN)C(N)=O)[C@@H](C)CC)C(C)C)[C@@H](C)CC)[C@@H](C)CC)[C@@H](C)CC [(SEQ ID NO: 4)-NH2] (H-GIGKILKKAKKIGKAIVKILKK-NH2)	4 µg/mL	16 µg/mL	64 µg/mL	
CC[C@H](C)[C@H](NC(=O)CN)C(=O)NCC(=O)N[C@@H](CCCCN)C(=O)N[C@@H](Cc1ccccc1)C(=O)N[C@@H](CC(C)C)C(=O)N[C@@H](CCCCN)C(=O)N[C@@H](CCCCN)C(=O)N[C@@H](C)C(=O)N[C@@H](CCCCN)C(=O)N[C@@H](CCCCN)C(=O)N[C@@H](Cc1ccccc1)C(=O)NCC(=O)N[C@@H](CCCCN)C(=O)N[C@@H](C)C(=O)N[C@@H](Cc1ccccc1)C(=O)N[C@H](C(=O)N[C@@H](CCCCN)C(=O)N[C@H](C(=O)N[C@@H](CC(C)C)C(=O)N[C@@H](CCCCN)C(=O)N[C@@H](CCCCN)C(=O)N[C@@H](CC(N)=O)C(N)=O)[C@@H](C)CC)C(C)C [(SEQ ID NO: 9)-NH2] (H-GIGKFLKKAKKFGKAFVKILKKN-NH2)	8 µg/mL	64 µg/mL		
CC[C@H](C)[C@H](N)C(=O)NCC(=O)N[C@@H](CCCCN)C(=O)N[C@@H](Cc1ccccc1)C(=O)N[C@@H](CC(C)C)C(=O)N[C@@H](CCCCN)C(=O)N[C@@H](CCCCN)C(=O)N[C@@H](C)C(=O)N[C@@H](CCCCN)C(=O)N[C@@H](CCCCN)C(=O)N[C@@H](Cc1ccccc1)C(=O)NCC(=O)N[C@@H](CCCCN)C(=O)N[C@@H](CCCCN)C(=O)N[C@@H](Cc1ccccc1)C(=O)N[C@@H](CCCCN)C(=O)N[C@@H](CCCCN)C(=O)N[C@@H](CCC(=O)O)C(=O)N[C@H](C(=O)N[C@@H](CCCCN)C(=O)N[C@@H](CCCCN)C(N)=O)[C@@H](C)CC [(SEQ ID NO: 3)-NH2] (H-IGKFLKKAKKFGKKFKKEIKK-NH2)	16 µg/mL	32 µg/mL		
CC[C@H](C)[C@H](NC(=O)CNC(=O)[C@H](CCCNC(=N)N)NC(=O)[C@@H](N)CCCNC(=N)N)C(=O)NCC(=O)N[C@@H](CCCCN)C(=O)N[C@@H](Cc1ccccc1)C(=O)N[C@@H](CC(C)C)C(=O)N[C@@H](CCCCN)C(=O)N[C@@H](CCCCN)C(=O)N[C@@H](C)C(=O)N[C@@H](CCCCN)C(=O)N[C@@H](CCCCN)C(=O)N[C@@H](Cc1ccccc1)C(=O)NCC(=O)N[C@@H](CCCCN)C(=O)N[C@@H](C)C(=O)N[C@@H](Cc1ccccc1)C(=O)N[C@H](C(=O)N[C@@H](CCCCN)C(=O)N[C@H](C(=O)N[C@@H](CC(C)C)C(=O)N[C@@H](CCCCN)C(=O)N[C@@H](CCCCN)C(N)=O)[C@@H](C)CC)C(C)C [(SEQ ID NO: 12)-NH2] (H-RRGIGKFLKKAKKFGKAFVKILKK-NH2)	32 µg/mL		128 µg/mL	

Source: patent publication US5424290A, “Biologically active peptides and uses therefor” (Magainin Pharmaceuticals Inc., priority 1992, dated 1995)
